17 compounds from patent publication US10219516B2, “Molecules having pesticidal utility, and intermediates, compositions, and processes, related thereto” (priority 2015, dated 2019) can be followed below.

Molecules are shown by their SMILES. Like-named read-outs stand apart in the source and are kept apart here.

What all share (type): in vivo
In test [1] the test system is Beet Armyworm (Spodoptera exigua, LAPHEG). The experiment in a line: Bioassay on Beet Armyworm (BAW), 128-well diet tray assay. The gist of the method:
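Diet tray, 8 wells/compound; 50 μg/cm^2 applied to diet surface (90:10 acetone-water), dried. 1–5 L2 larvae/well; 25° C., 14:10 L:D, 5–7 d. Read-out: % mortality, mean of 8 wells.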

Test [2] relates to Cabbage Looper (Trichoplusia ni, TRIPNI). Put plainly: Bioassay on Cabbage Looper (CL), 128-well diet tray assay. The settings on record: Trichoplusia ni. An outline of the steps: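 Second-instar larvae, one to five per well, placed on artificial diet treated with 50 μg/cm^2 test molecule in 90:10 acetone-water, dried before infestation. Held 5–7 days at 25° C, 14:10 light-dark; percent mortality averaged over eight wells.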

Test [3] concerns Green Peach Aphid (Myzus persicae, MYZUPE). The experiment in a line: Bioassay on Green Peach Aphid (GPA), foliar spray on infested cabbage seedlings. The conditions noted are these: 72 h. The gist of the method: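 Cabbage seedlings (2-3 true leaves) infested with 20-50 wingless adult and nymph aphids one day before treatment; sprayed to runoff at 200 ppm in 0.025% Tween 20 water with 20% acetone/methanol, four pots per treatment. Held three days at about 25° C; live aphids counted, % control by Abbott's correction versus solvent check.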

Test [4] relates to Yellow Fever Mosquito (Aedes aegypti, AEDSAE). The experiment in a line: Bioassay on Yellow Fever Mosquito (YFM), 96-well plate larval assay. The conditions noted are these: for YFM (Biological Results, rating): Species YFM (Yellow Fever Mosquito); for YFM rating: Yellow Fever Mosquito, 96-well plate larval assay. An outline of the steps:
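Compound stocks at 4000 ppm in DMSO were diluted with 90:10 water/acetone, and 15 μL aliquots were dispensed into six replicate plates. About 1-day-old larvae in liver-powder water were added per well. Plates were covered and held at room temperature for 3 days before each well was scored for mortality.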

[5] abbreviates: Species BAW (Beet Armyworm), read-out: BAW (Biological Results, rating).
Setting [6] is: Species CL (Cabbage Looper), read-out: CL (Biological Results, rating).
[7] abbreviates: foliar, Species GPA (Green Peach Aphid), read-out: GPA (Biological Results, rating).
Setting [8] is: Beet Armyworm, 128-well diet tray assay, read-out: BAW rating.
The mark [9] stands for this setting: Cabbage Looper, 128-well diet tray assay, read-out: CL rating.
Where [10] appears, read: Green Peach Aphid, foliar spray on cabbage seedlings, read-out: GPA rating.

As to `O=C(Nc1ccc[n+]([O-])c1)c1cc(NC(=O)[C@H]2[C@H](c3cc(Cl)cc(Cl)c3)C2(Cl)Cl)ccc1Cl` (relative stereo) [F139, trans-3-(2-chloro-5-(2,2-dichloro-3-(3,5-dichlorophenyl)cyclopropane-1-carboxamido)benzamido)pyridine 1-oxide], the pest or weed control at 50 µg/cm2 in test [1] (setting [5]) and in test [2] (setting [6]) was 50 to 100% in each case. The pest or weed control at 200 µg/mL in test [3] (setting [7]) fell in the range of 0 to 80%. Moreover, the “YFM (Biological Results, rating)” value in test [4] was “A (80-100)”.

Regarding `O=C(Nc1ccc(F)cc1)c1cc(NC(=O)[C@H]2[C@H](c3cc(Cl)cc(Cl)c3)C2(Cl)Cl)ccc1Cl` [F165, 2-Chloro-5-((1R,3R)-2,2-dichloro-3-(3,5-dichlorophenyl)cyclopropane-1-carboxamido)-N-(4-fluorophenyl)benzamide], the pest or weed control at 50 µg/cm2 in test [1] (setting [5]) and in test [2] (setting [6]) was 50 to 100% each time. Besides, the pest or weed control at 200 µg/mL in test [3] (setting [7]) was 80 to 100%. For the same compound, the “YFM (Biological Results, rating)” value in test [4] is “B (More than 0-Less than 80)”.

For `O=C(Nc1cnc2[nH]ccc2c1)c1cc(NC(=O)[C@H]2[C@H](c3cc(Cl)cc(Cl)c3)C2(Cl)Cl)ccc1Cl` (relative stereo) [F481, 2-Chloro-5-(trans)-(2,2-dichloro-3-(3,5-dichlorophenyl)cyclopropane-1-carboxamido)-N-(1H-pyrrolo[2,3-b]pyridin-5-yl)benzamide], the pest or weed control at 50 µg/cm2 in test [1] (setting [8]) and in test [2] (setting [9]) was 50 to 100% throughout. In test [3] (setting [10]), the pest or weed control at 200 µg/mL fell in the range of 0 to 80%. Also, the YFM rating result in test [4] is recorded as “A (80-100)”.

Regarding `O=C(Nc1c(F)cccc1F)c1cc(NC(=O)[C@H]2[C@H](c3cc(Cl)cc(Cl)c3)C2(Br)Br)ccc1Cl` (relative stereo) [F162, trans-2-Chloro-5-(2,2-dibromo-3-(3,5-dichlorophenyl)cyclopropane-1-carboxamido)-N-(2,6-difluorophenyl)benzamide], the pest or weed control at 50 µg/cm2 in test [1] (setting [5]) and in test [2] (setting [6]) was 50 to 100% throughout. The pest or weed control at 200 µg/mL in test [3] (setting [7]) was 0 to 80%. In addition, in test [4], the “YFM (Biological Results, rating)” value is “B (More than 0-Less than 80)”.

For the compound `O=C(Nc1ccccc1Cl)c1cc(NC(=O)[C@H]2[C@H](c3cc(Cl)cc(Cl)c3)C2(Cl)Cl)ccc1Cl` (relative stereo) [F38, trans-2-Chloro-N-(2-chlorophenyl)-5-(2,2-dichloro-3-(3,5-dichlorophenyl)cyclopropane-1-carboxamido)benzamide], the pest or weed control at 50 µg/cm2 in test [1] (setting [5]) and in test [2] (setting [6]) was 50 to 100% throughout. Further, the pest or weed control at 200 µg/mL in test [3] (setting [7]) was 80 to 100%. Besides, the “YFM (Biological Results, rating)” value in test [4] is “A (80-100)”.

For `O=C(Nc1ccc(F)cc1F)c1cc(NC(=O)[C@H]2[C@H](c3ccc(F)c(Cl)c3)C2(Cl)Cl)ccc1Cl` [F533], the pest or weed control at 50 µg/cm2 in test [1] (setting [8]) and in test [2] (setting [9]) was 50 to 100% in each case. Further, in test [3] (setting [10]), the pest or weed control at 200 µg/mL is 80 to 100%. Also, the YFM rating entry in test [4] was “A (80-100)”.

In the case of `O=C(Nc1ccc(F)cc1)c1cc(NC(=O)[C@H]2[C@H](c3ccc(F)c(Cl)c3)C2(Cl)Cl)ccc1Cl` (relative stereo) [PF4, trans-2-Chloro-5-(2,2-dichloro-3-(3-chloro-4-fluorophenyl)cyclopropane-1-carboxamido)-N-(4-fluorophenyl)benzamide], the pest or weed control at 50 µg/cm2 in test [1] (setting [8]) and in test [2] (setting [9]) was 50 to 100% throughout. Further, the pest or weed control at 200 µg/mL in test [3] (setting [10]) is 80 to 100%. Also, the YFM rating result in test [4] is reported as “B (More than 0-Less than 80)”.

Take `O=C(Nc1ccc(F)cc1)c1cc(NC(=O)[C@H]2[C@H](c3ccc(OC(F)(F)F)c(Cl)c3)C2(Cl)Cl)ccc1Cl` (relative stereo) [F79, trans-2-Chloro-5-(2,2-dichloro-3-(3-chloro-4-(trifluoromethoxy)phenyl)cyclopropane-1-carboxamido)-N-(4-fluorophenyl)benzamide]: the pest or weed control at 50 µg/cm2 in test [1] (setting [5]) and in test [2] (setting [6]) was 50 to 100% in each case. The pest or weed control at 200 µg/mL in test [3] (setting [7]) fell in the range of 80 to 100%. Also, the “YFM (Biological Results, rating)” value in test [4] is “B (More than 0-Less than 80)”.

`O=C(Nc1ccc(F)cc1C(F)(F)F)c1cc(NC(=O)[C@H]2[C@H](c3cc(Cl)cc(Cl)c3)C2(Cl)Cl)ccc1Cl` (relative stereo) [PF69, trans-2-chloro-5-(2,2-dichloro-3-(3,5-dichlorophenyl)cyclopropane-1-carboxamido)-N-(4-fluoro-2-(trifluoromethyl)phenyl)benzamide]: the pest or weed control at 50 µg/cm2 in test [1] (setting [8]) and in test [2] (setting [9]) was 50 to 100% each time. Further, the pest or weed control at 200 µg/mL in test [3] (setting [10]) is 80 to 100%. In addition, in test [4], the YFM rating entry is “B (More than 0-Less than 80)”.

Regarding `O=C(Nc1ccc(F)cc1)c1nc(NC(=O)[C@H]2[C@H](c3cc(Cl)cc(Cl)c3)C2(Cl)Cl)ccc1Cl` (relative stereo) [F131, trans-3-Chloro-6-(2,2-dichloro-3-(3,5-dichlorophenyl)cyclopropane-1-carboxamido)-N-(4-fluorophenyl)picolinamide], the pest or weed control at 50 µg/cm2 in test [1] (setting [5]) and in test [2] (setting [6]) was 50 to 100% each time. Moreover, in test [3] (setting [7]), the pest or weed control at 200 µg/mL was 0 to 80%. Besides, the “YFM (Biological Results, rating)” value in test [4] is “A (80-100)”.

Regarding `CN(C(=O)c1cc(NC(=O)[C@H]2[C@H](c3cc(Cl)cc(Cl)c3)C2(Cl)Cl)ccc1Cl)c1cccc(F)c1` (relative stereo) [F34, trans-2-Chloro-5-(2,2-dichloro-3-(3,5-dichlorophenyl)cyclopropane-1-carboxamido)-N-(3-fluorophenyl)-N-methylbenzamide], the pest or weed control at 50 µg/cm2 in test [1] (setting [5]) and in test [2] (setting [6]) was 50 to 100% throughout. In addition, in test [3] (setting [7]), the pest or weed control at 200 µg/mL lay in the range of 0 to 80%. Moreover, the “YFM (Biological Results, rating)” value in test [4] is “A (80-100)”.

As for `Cc1cc(C#N)ccc1NC(=O)c1cc(NC(=O)[C@H]2[C@H](c3ccc(Cl)c(Cl)c3)C2(Cl)Cl)ccc1Cl` (relative stereo) [F55, trans-2-Chloro-N-(4-cyano-2-methylphenyl)-5-(2,2-dichloro-3-(3,4-dichlorophenyl)cyclopropane-1-carboxamido)benzamide], the pest or weed control at 50 µg/cm2 in test [1] (setting [5]) and in test [2] (setting [6]) was 50 to 100% throughout. For the same compound, the pest or weed control at 200 µg/mL in test [3] (setting [7]) fell in the range of 80 to 100%. Also, the “YFM (Biological Results, rating)” value in test [4] is given as “A (80-100)”.

For `O=C(Nc1cccc(C(F)(F)F)c1)c1cc(NC(=O)[C@H]2[C@H](c3cc(Cl)cc(Cl)c3)C2(Cl)Cl)ccc1Cl` (relative stereo) [PF71, trans-2-Chloro-5-(2,2-dichloro-3-(3,5-dichlorophenyl)cyclopropane-1-carboxamido)-N-(3-(trifluoromethyl)phenyl)benzamide], the pest or weed control at 50 µg/cm2 in test [1] (setting [8]) and in test [2] (setting [9]) was 50 to 100% in each case. Besides, in test [3] (setting [10]), the pest or weed control at 200 µg/mL fell in the range of 0 to 80%. Besides, the YFM rating result in test [4] was “A (80-100)”.

`COc1c(NC(=O)[C@H]2[C@H](c3cc(Cl)cc(Cl)c3)C2(Cl)Cl)cccc1C(=O)Nc1ccc(F)cc1` (relative stereo) [F30, trans-3-(2,2-Dichloro-3-(3,5-dichlorophenyl)cyclopropane-1-carboxamido)-N-(4-fluorophenyl)-2-methoxybenzamide]: the pest or weed control at 50 µg/cm2 in test [1] (setting [5]) and in test [2] (setting [6]) was 50 to 100% throughout. Further, the pest or weed control at 200 µg/mL in test [3] (setting [7]) was 0 to 80%. For the same compound, the “YFM (Biological Results, rating)” value in test [4] is “A (80-100)”.

`O=C(Nc1ccc(F)cc1F)c1cc(NC(=O)[C@H]2[C@H](c3cc(Cl)c(Cl)c(Cl)c3)C2(Cl)Cl)ccc1Cl` (relative stereo) [F40, trans-2-Chloro-5-(2,2-dichloro-3-(3,4,5-trichlorophenyl)cyclopropane-1-carboxamido)-N-(2,4-difluorophenyl)benzamide]: the pest or weed control at 50 µg/cm2 in test [1] (setting [5]) and in test [2] (setting [6]) was 50 to 100% each time. Also, the pest or weed control at 200 µg/mL in test [3] (setting [7]) was 80 to 100%. Besides, the “YFM (Biological Results, rating)” value in test [4] is listed as “B (More than 0-Less than 80)”.

For the compound `O=C(Nc1cccc(F)c1)c1cc(NC(=O)[C@H]2[C@H](c3ccc(Cl)c(Cl)c3)C2(Cl)Cl)ccc1Cl` (relative stereo) [F51, trans-2-Chloro-5-(2,2-dichloro-3-(3,4-dichlorophenyl)cyclopropane-1-carboxamido)-N-(3-fluorophenyl)benzamide], the pest or weed control at 50 µg/cm2 in test [1] (setting [5]) and in test [2] (setting [6]) was 50 to 100% throughout. In addition, the pest or weed control at 200 µg/mL in test [3] (setting [7]) lay in the range of 80 to 100%. The “YFM (Biological Results, rating)” value in test [4] is “A (80-100)”.

For `O=C(Nc1cccc(F)c1F)c1cc(NC(=O)[C@H]2[C@H](c3cc(Cl)cc(Cl)c3)C2(Cl)Cl)ccc1Cl` (relative stereo) [F22, trans-2-Chloro-5-(2,2-dichloro-3-(3,5-dichlorophenyl)cyclopropane-1-carboxamido)-N-(2,3-difluorophenyl)benzamide], the pest or weed control at 50 µg/cm2 in test [1] (setting [5]) and in test [2] (setting [6]) was 50 to 100% each time. Moreover, the pest or weed control at 200 µg/mL in test [3] (setting [7]) lay within 80 to 100%. Moreover, the “YFM (Biological Results, rating)” value in test [4] was “A (80-100)”.
